According to PubChem BioAssay AID1117361 (Southern Research Institute, 2015):

Target: Protein Tat (Human immunodeficiency virus type 1 group M subtype B (isolate HXB2)) (UniProt P04608)
Test: inhibitors of Tat binding to TAR RNA, dose response, counter-screen for Vif-APOBEC3G degradation inhibitor project, biochemical, fluorescence polarization, FAM-labeled TAR RNA (AID 1117361)

Protein Tat (Human immunodeficiency virus type 1 group M subtype B (isolate HXB2)), sequence (P04608 whole entry, looked up): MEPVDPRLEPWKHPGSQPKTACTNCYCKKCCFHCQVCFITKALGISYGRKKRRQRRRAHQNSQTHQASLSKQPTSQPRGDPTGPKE

SMILES	IC50 [µM]
COC(=O)C1C(O)C(C)C(O)C(C)(O)/C=C\C=C(/C)C(=O)Nc2c(C)c(OC(C)=O)c3c(c2O)C(=O)C(C)=C2OCOC(=C23)/C(C)=C/C(C)(O)C(O)C(C)C1O (configuration not stated)	54.6
CC1(C)N([O-])c2cc([N+](=O)[O-])ccc2[N+]1=O	61.3
CCOc1ccc(N(CC(=O)NC(C)(C)C)S(=O)(=O)c2c(C)noc2C)cc1	5.37
CC(C)C(C(=O)O)N1C(=O)/C(=C/C=C/c2ccco2)SC1=S (configuration not stated)	1.4
Oc1cc2c(cc1O)C1c3ccc(O)c(O)c3OCC1(O)C2 (configuration not stated)	11.7
Cc1cc(-c2nc3c4c5c(sc4[nH]c(=O)n3n2)CCC5)c(C)o1	3.66
CN(C)N1C(N)=C(C#N)C(c2cccnc2)C2=C1CCCC2=O (configuration not stated)	15.3
C=C(C)C(=O)Nc1cccc(C2=NOC3(C2)C[C@@H](C(N)=O)N(C(=O)/C=C/CC)C3)c1 (some centres not stated)	24.5
CC(=C/c1ccco1)/C=N/NC(=O)Cc1cccn1C	10.7
O=C(C1CCCN1S(=O)(=O)c1cccc2cccnc12)N1CCN(c2ccccc2)CC1 (configuration not stated)	46.8
O=C1CC(SC(=S)C2CCCC2=O)C(=O)N1 (configuration not stated)	3.21
O=C1C2C3C=CC(C3)C2C(=O)N1CNc1ccc(O)cc1 (configuration not stated)	25.7
O=C(O)c1cccc2cccc(-c3c4ccc(=O)c(O)c-4oc4c(O)c(O)ccc34)c12	3.38
N#Cc1c(-c2ccco2)cc(-c2ccccc2)[nH]c1=O	5
O=C1NC(=O)C(=Cc2ccc(SC3CCCCC3)o2)C(=O)N1	30.9
CC1(c2ccc3noc(-c4ccccc4)c3c2)OCCO1	2.87
CN(CCc1ccccc1)C(=O)c1ccc(NC(=O)Cc2ccc(NC(=O)C3CCN(C(=O)CCc4ccccc4)CC3)cc2)cc1	44.3
O=C1CC(c2ccco2)CC(O)=C1C=Nc1cc(Cl)ccc1O (configuration not stated)	20.5
O=C1CC(=O)N(Cc2ccco2)C(=S)N1	1.56
Cc1oc(-c2ccc(Cl)cc2)cc1-c1nn2c(-c3ccoc3C)nnc2s1	2.87
O=C1/C(=C/C=C/c2ccco2)SC(=S)N1c1ccc(O)cc1	19.1
O=C(Nc1cccc(C(F)(F)F)c1)c1ccc2nc(-c3ccco3)c(-c3ccco3)nc2c1	6.07
Cc1cc(C)nc(N2CCC(C(=O)O)CC2)n1	72.8
COc1ccc(NC(=O)c2cc(-c3ccco3)nc3ccccc23)cc1S(=O)(=O)N1CCOCC1	19.3
Cc1cnnc2ccc3c(no[n+]3[O-])c12	36.5
O=C(COC(=O)c1ccc(NS(=O)(=O)c2cccs2)cc1)NCc1ccco1	16.4

SMILES	IC50 [µM]
O=C(O)C[C@@H]1C(=O)O[C@@H]2C(COC(=O)c3cc(O)c(O)c(O)c3)O[C@@H](OC(=O)c3cc(O)c(O)c(O)c3)[C@@H](OC(=O)c3cc(O)c(O)c4c3[C@H]1[C@H](O)C(=O)O4)[C@H]2OC(=O)c1cc(O)c(O)c(O)c1 (some centres not stated)	0.556
Cc1c(C(=O)O)cccc1-n1c(C)cc(/C=N/Nc2ccc([N+](=O)[O-])cn2)c1C	64
CCOc1cc(N2CCOCC2)c(OCC)cc1NC(=O)CSc1ncn[nH]1	35.7
O=C(O)C1Nc2ccc(Br)cc2C2C=CCC12 (configuration not stated)	3.73
COC(=O)c1ccccc1NC(=O)C1CCCC1	4.92
N=C1/C(=C/c2ccc(Br)o2)C(=O)N=C2SC(CC(=O)N3CCCC3)=NN12	53.7
CCOC(=O)c1ccc(CC(=O)c2ccc(O)c(O)c2O)o1	74
CC(/C=C1\SC(=S)N(CCCC(=O)Nc2ccc(C(=O)O)c(O)c2)C1=O)=C\c1ccccc1	26
Cc1ccc(C(=O)N/N=C\c2cc(Br)c(Br)o2)cn1	2.34
Nc1ncnc2oc(-c3ccco3)c(-c3ccco3)c12	3.36
Cn1c(=O)c2c(ncn2CC(=O)N/N=C/C=C/c2ccco2)n(C)c1=O	17.1
Cc1ccc(SCCN2C(=O)NC(C)(C)C2=O)cc1	24.8
COc1ccc2c(c1OC)C(=O)OC2CC(=O)c1ccc(O)c(O)c1 (configuration not stated)	80.5
N#C/C(=C/c1ccc(N2CCCCCC2)o1)c1cccc(F)c1	98.4
CN(C)c1ccc(N2C(=O)CC(Nc3ccc(N4CCOCC4)cc3)C2=O)cc1 (configuration not stated)	9.99
Cc1cc(C(=O)CSc2nnnn2-c2ccccc2)c(C)n1CC1CCCO1 (configuration not stated)	35
COc1ccc2nc3ccccc3nc2c1N	81.6
O=C(COC(=O)c1ccccc1)Nc1ncc([N+](=O)[O-])s1	20.5
COc1cc(NC(=O)CS(=O)(=O)c2ccc(C)cc2)cc(OC)c1OC	1.42
COc1cccc(-n2c(Cc3cc(=O)[nH]c(=O)[nH]3)nnc2SCC(=O)NC2CCCC2)c1	10.1
CCOC(=O)c1c(N)sc(=S)c2c1CCC2	52
CCOC(=O)c1cc2cc(F)ccc2nc1C	6.24
CCNC(=O)COC(=O)c1cc(-c2ccco2)nc2ccccc12	8.09
Cc1nn(-c2ccccn2)c2c1C(=O)C(Br)CC2 (configuration not stated)	8.82
O=C(O)Cc1ccc(N=Nc2c(O)c(C(=O)O)cc3ccccc23)cc1	27.5
O=C1C(=Cc2ccco2)CCCC1=Cc1ccco1	63.9

SMILES	IC50 [µM]
CCCC(=Nc1ccc(N)cc1)C1=C(O)C(C(=O)OC)C(C)(C)CC1=O (configuration not stated)	6.88
c1coc(-c2nc3ccccc3nc2-c2ccco2)c1	6.44
COc1ccc(-n2c(C)cc(C(=O)CSc3nn4c(=O)c(C(C)(C)C)nnc4s3)c2C)cc1	62.7
Cc1ccc(/C=C/C(=O)Nc2ccc([N+](=O)[O-])c(NC(=O)/C=C/c3ccc(C)o3)c2)o1	7.2
O=C(O)C1=NN(c2cc(Cl)c(S(=O)(=O)O)cc2Cl)C(=O)C1	30.9
Cc1cc(-c2csc(NC(=O)c3ccc(C#N)cc3)n2)c(C)n1Cc1ccco1	16.7
O=C(O)CCCNc1cc(N2CCC3(CC2)OCCO3)c2noc3c2c1C(=O)c1ccccc1-3	3.59
CNc1ccccc(C(=O)/C=C/c2ccccc2OC)c1=O	6.69
COc1cccc(C2C(C#N)=C(N)OC3=C2C(=O)CC(c2ccco2)C3)c1OCc1ccc(F)cc1 (configuration not stated)	12.2
O=C(Nc1ccc(F)cc1)C(c1ccccc1)N1CCN(S(=O)(=O)c2ccc3ccccc3c2)CC1 (configuration not stated)	1.23
CC[C@H](C)/C=C(C)/C=C/C1=CC2=CC(=O)[C@]3(C)OC(=O)[C@@H](C(C)=O)[C@@H]3C2=CO1	14.4
CCOC(=O)C1=C(C)N=C2SC(C(=O)OC)=CC(=O)N2C1c1cc(OC)c(OC)c(OC)c1 (configuration not stated)	31.4
CCN(CC)c1ccc(NC(=O)CCS(=O)(=O)c2ccc(Br)cc2)c(C)c1	46.5
COC/C=C/C1=CC2=CC(=O)C(C)(OC(=O)c3cnc4ccccc4n3)C(=O)C2=CN1c1ccccc1 (configuration not stated)	22.3
CCc1nc2oc3cc(OC)ccc3c(=O)c2c(=O)n1Cc1ccco1	24
CNc1ccc(Br)cc(C(=O)/C=C/c2ccc(OC)cc2OC)c1=O	52
CCc1c(C)sc(NC(=O)c2cc(-c3ccco3)on2)c1C#N	52.4
CC(=C\c1ccco1)/C=C1/SC(=S)N(CC(=O)O)C1=O	8.8
Nc1nc(-c2ccco2)c(-c2ccco2)s1	2.39
CCN1CCc2c(C#N)c(NCc3ccccc3)nc(N(CC)CC)c2C1	59.4
CC(C)(C)C1C/C(=C/c2ccco2)C(=O)/C(=C/c2ccco2)C1 (configuration not stated)	7.08
CC(C)(CS(=O)(=O)[O-])NC(=O)CC[N+](C)(C)CCO	17.5
O=C1NC(=S)SC1=C1CCCC1	6.59
COc1ccc(-c2cc(C(=O)N/N=C/c3ccc(OC)c(COCC(F)(F)C(F)F)c3)c3ccccc3n2)c(OC)c1	99.4
CCOC(=O)C1CCCN(C(=O)c2cc(-c3ccco3)nc3ccccc23)C1 (configuration not stated)	27.8
